Source: patent publication US20010034357A1, “Substituted pyridine compounds useful for controlling chemical synaptic transmission” (priority 2000, published 2001)
Like-named read-outs stand apart in the source and are kept apart here.

What was measured:
[1] = molecular target: T1, neuronal nicotinic acetylcholine receptors (Rattus norvegicus, UniProt P09483+P12390); experiment: [3H]-cytisine binding to neuronal nicotinic acetylcholine receptors, crude synaptic membranes from whole rat brain; conditions: [3H]-CYT 1.25 nM, whole rat brain membranes, 60 minutes at 4° C., Cheng and Prusoff correction
T1 construct: crude synaptic membrane preparations from whole rat brain; from tissue; host or cells: whole rat brain, crude synaptic membranes
T1 sequence (P09483 31-630): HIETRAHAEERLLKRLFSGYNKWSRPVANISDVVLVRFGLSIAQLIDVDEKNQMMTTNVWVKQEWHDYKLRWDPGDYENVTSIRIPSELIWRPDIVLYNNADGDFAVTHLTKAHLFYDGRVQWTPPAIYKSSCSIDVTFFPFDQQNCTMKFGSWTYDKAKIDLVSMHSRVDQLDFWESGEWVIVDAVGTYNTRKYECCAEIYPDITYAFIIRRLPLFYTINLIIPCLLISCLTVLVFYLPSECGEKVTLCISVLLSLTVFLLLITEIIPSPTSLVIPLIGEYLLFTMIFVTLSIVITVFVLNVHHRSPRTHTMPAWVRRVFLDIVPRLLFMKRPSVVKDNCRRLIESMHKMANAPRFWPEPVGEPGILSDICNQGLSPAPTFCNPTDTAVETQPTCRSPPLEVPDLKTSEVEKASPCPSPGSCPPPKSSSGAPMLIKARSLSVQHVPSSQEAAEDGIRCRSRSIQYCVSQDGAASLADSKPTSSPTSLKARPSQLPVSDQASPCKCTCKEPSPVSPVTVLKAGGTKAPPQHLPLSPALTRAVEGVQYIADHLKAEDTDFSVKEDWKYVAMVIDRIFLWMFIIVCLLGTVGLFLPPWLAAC
T1 sequence (P12390 25-500): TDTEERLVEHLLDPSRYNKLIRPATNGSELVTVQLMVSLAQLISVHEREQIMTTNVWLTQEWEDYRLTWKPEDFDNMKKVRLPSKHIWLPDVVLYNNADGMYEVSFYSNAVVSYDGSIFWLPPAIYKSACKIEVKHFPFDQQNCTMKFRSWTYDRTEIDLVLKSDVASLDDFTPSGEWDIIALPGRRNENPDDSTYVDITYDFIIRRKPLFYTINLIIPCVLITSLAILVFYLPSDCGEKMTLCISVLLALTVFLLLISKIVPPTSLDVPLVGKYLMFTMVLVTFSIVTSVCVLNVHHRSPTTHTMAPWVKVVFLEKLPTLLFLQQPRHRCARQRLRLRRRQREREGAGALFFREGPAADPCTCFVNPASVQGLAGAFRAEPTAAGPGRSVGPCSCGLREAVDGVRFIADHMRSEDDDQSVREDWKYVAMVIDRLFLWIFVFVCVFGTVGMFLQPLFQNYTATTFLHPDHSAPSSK
Protocol: The in vitro protocols for determination of nicotinic acetylcholine channel receptor binding potencies of ligands was determined as follows.
Binding of [^3H]-cytisine ([^3H]-CYT) to neuronal nicotinic acetylcholine receptors was accomplished using crude synaptic membrane preparations from whole rat brain (Pabreza et al., Molecular Pharmacol., 1990, 39:9). Washed membranes were stored at −80° C. prior to use. Frozen aliquots were slowly thawed and resuspended in 20 volumes of buffer (containing: 120 mM NaCl, 5 mM KCl, 2 mM MgCl2, 2 mM CaCl2 and 50 mM Tris-Cl, pH 7.4 @4° C.). After centrifuging at 20,000×g for 15 minutes, the pellets were resuspended in 30 volumes of buffer.
The test compounds were dissolved in water to make 10 mM stock solutions. Each solution was then diluted (1:100) with buffer (as above) and further taken through seven serial log dilutions to produce test solutions from 10^−5 to 10^−11 M.
Homogenate (containing 125-150 µg protein) was added to triplicate tubes containing the range of concentrations of test compound described above and [^3H]-CYT (1.25 nM) in a final volume of 500 μL. Samples were incubated for 60 minutes at 4° C., then rapidly filtered through Whatman GF/B filters presoaked in 0.5% polyethyleneimine using 3×4 mL of ice-cold buffer. The filters are counted in 4 mL of Ecolume® (ICN). Nonspecific binding was determined in the presence of 10 μM (−)-nicotine and values were expressed as a percentage of total binding. IC50 values were determined with a four-parameter non-linear regression and IC50 values were converted to K1 values using the Cheng and Prusoff correction (K1=IC50/(1+[ligand]/Kd of ligand).
Each Example number corresponds to the synthetic Examples described above. […] The lower the Ki value, the more affinity for neuronal nicotinic acetylcholine receptors.

mouse hot plate paradigm = mouse hot plate paradigm (analgesia, latency until tenth jump); type: in vivo; conditions: mice, intraperitoneal, dosed 30 minutes prior to testing, hot plate 55° C.; for Analgesic MED: minimally effective dose among the doses tested; for Analgesic MED (μmol/kg): footnote symbols for no effect
Protocol: An in vivo protocol was utilized to determine the effectiveness of nicotinic acetylcholine receptor ligands as analgesic agents in the mouse hot plate paradigm.
Separate groups of mice, (n=8/group) were utilized for each dose group. All drugs were administered by the intraperitoneal route of administration. Test drugs were dissolved in water to make a 6.2 mM stock solution. Animals were dosed with this solution (10 mL/kg body weight) for a 62 micromol/kg dose. Lower doses were administered similarly, following serial dilution of the stock solution in half-log increments. Animals were dosed 30 minutes prior to testing in the hot plate. The hot-plate utilized was an automated analgesia monitor (Model #AHP16AN, Omnitech Electronics, Inc. of Columbus, Ohio). The temperature of the hot plate was maintained at 55° C. and a cut-off time of 180 seconds was utilized. A control was run against each compound tested. Latency until the tenth jump was recorded as the dependent measure. An increase in the tenth jump latency relative to the control was considered a significant effect.

| Compound | Ki ([1]; Table 1, read-out: Ki) [nM] | Analgesic MED (mouse hot plate paradigm) [µmol/kg] | Analgesic MED (μmol/kg) (mouse hot plate paradigm) | Ki ([1]; Table 2, read-out: K1 (nm)) [nM] |
| --- | --- | --- | --- | --- |
| C[C@@H](N)COc1ccc(F)nc1.Cc1ccc(S(=O)(=O)O)cc1 [Example 29, 5-[(R)-2-amino-1-propyloxy]-2-fluoro pyridine p-toluenesulfonic acid] | 6.6 | 62 | – | – |
| CN[C@@H](C)COc1ccc(F)nc1.Cc1ccc(S(=O)(=O)O)cc1 [Example 6, 5-[(S)-2-methylamino-1-propyloxy]-2-fluoro pyridine p-toluenesulfonic acid] | 68.9 | – | * (no effect at 62) | – |
| CN[C@H](C)COc1cnc(Cl)c(C)c1.Cc1ccc(S(=O)(=O)O)cc1 [Example 37, 5-[(R)-2-methylamino-1-propyloxy]-2-chloro-3-methyl pyridine p-toluenesulfonic acid] | 0.565 | – | * (no effect at 62) | – |
| CN[C@H](C)COc1cnc(Cl)c(Br)c1.Cc1ccc(S(=O)(=O)O)cc1 [Example 34, 5-[(R)-2-methylamino-1-propyloxy]-2-chloro-3-bromo pyridine p-toluenesulfonic acid] | 1.48 | – | * (no effect at 62) | – |
| CC[C@H](N)COc1cnc(Cl)c(Br)c1.Cc1ccc(S(=O)(=O)O)cc1 [Example 18, 5-[(S)-2-amino-1-butyloxy]-2-chloro-3-bromo pyridine p-toluenesulfonic acid] | 14.8 | – | * (no effect at 62) | – |
| CN[C@@H](C)COc1cnc(Cl)c(Br)c1.Cc1ccc(S(=O)(=O)O)cc1 [Example 9, 5-[(S)-2-methylamino-1-propyloxy]-2-chloro-3-bromo pyridine p-toluenesulfonic acid] | 10.9 | – | ** (no effect at 6.2) | – |
| Cc1cc(OC[C@@H](C)N(C)C)cnc1Cl.Cc1ccc(S(=O)(=O)O)cc1 [Example 36, 5-[(R)-2-dimethylamino-1-propyloxy]-2-chloro-3-methyl pyridine p-toluenesulfonic acid] | 7.2 | – | * (no effect at 62) | – |
| C[C@H](COc1cnc(Cl)c(Br)c1)N(C)C [Example 33, 5-[(R)-2-dimethylamino-1-propyloxy]-2-chloro-3-bromo pyridine p-toluenesulfonic acid] | 11.9 | – | – | – |
| C[C@@H](COc1ccc(Cl)nc1)N(C)C.Cc1ccc(S(=O)(=O)O)cc1 [Example 2, 5-[(S)-2-dimethylamino-1-propyloxy]-2-chloro pyridine p-toluenesulfonic acid] | – | 62 | – | – |
| CCN[C@H](C)COc1ccc(Cl)nc1 [Example 41, 5-[(R)-2-ethylamino-1-propyloxy]-2-chloro pyridine p-toluenesulfonic acid] | 2310 | – | – | – |
| C[C@H](COc1ccc(F)nc1)N(C)C.Cc1ccc(S(=O)(=O)O)cc1 [Example 30, 5-[(R)-2-dimethylamino-1-propyloxy]-2-fluoro pyridine p-toluenesulfonic acid] | 70.2 | – | * (no effect at 62) | – |
| C[C@@H](N)COc1cnc(Cl)c(C=Cc2ccncc2)c1 [Example 38, 5-[(R)-2-amino-1-propyloxy]-2-chloro-3-(4-vinylpyridinyl) pyridine p-toluenesulfonic acid] | 0.0809 | – | – | – |
| Cc1cc(OC[C@@H](C)N)cnc1Cl.Cc1ccc(S(=O)(=O)O)cc1 [Example 35, 5-[(R)-2-amino-1-propyloxy]-2-chloro-3-methyl pyridine p-toluenesulfonic acid] | 0.985 | 62 | – | – |
| C[C@@H](N)COc1cnc(Cl)c(Br)c1.Cc1ccc(S(=O)(=O)O)cc1 [Example 32, 5-[(R)-2-amino-1-propyloxy]-2-chloro-3-bromo pyridine p-toluenesulfonic acid] | 1.54 | 62 | – | – |
| C[C@H](N)COc1cnc(Cl)c(C=Cc2ccncc2)c1.Cc1ccc(S(=O)(=O)O)cc1 [Example 13, 5-[(S)-2-amino-1-propyloxy]-2-chloro-3-(4-vinylpyridinyl) pyridine p-toluenesulfonic acid] | 0.0761 | – | * (no effect at 62) | – |
| Cc1cc(OC[C@H](C)N)cnc1Cl.Cc1ccc(S(=O)(=O)O)cc1 [Example 10, 5-[(S)-2-amino-1-propyloxy]-2-chloro-3-methyl pyridine p-toluenesulfonic acid] | 0.525 | 62 | – | – |
| CC(N)CCOc1cnc(Cl)c(Br)c1 (stereo not drawn) [Example 47, 5-(3-Amino-1-butyloxy)-2-chloro-3-bromo-pyridine p-toluenesulfonic acid] | – | – | – | 31 |

| Compound | Ki ([1]; Table 1, read-out: Ki) [nM] | Analgesic MED (mouse hot plate paradigm) [µmol/kg] | Analgesic MED (μmol/kg) (mouse hot plate paradigm) | Ki ([1]; Table 2, read-out: K1 (nm)) [nM] |
| --- | --- | --- | --- | --- |
| CC(COc1ccc(Cl)nc1)N(C)C (stereo in doubt) [Example 27, 5-[(S)-2-dimethylamino-1-propyloxy]-2-chloro pyridine p-toluenesulfonic acid] | – | – | * (no effect at 62) | – |
| CN[C@@H](C)COc1ccc(Cl)nc1.Cc1ccc(S(=O)(=O)O)cc1 [Example 3, 5-[(S)-2-methylamino-1-propyloxy]-2-chloro pyridine p-toluenesulfonic acid] | 40.6 | 62 | – | – |
| 5-[(S)-2-amino-1-butyloxy]-2-chloro-3-(4-vinylpyridinyl) pyridine di-p-toluenesulfonic acid [Example 19] | 0.18 | – | – | – |
| C[C@H](N)COc1cnc(Cl)c(Br)c1.Cc1ccc(S(=O)(=O)O)cc1 [Example 7, 5-[(S)-2-amino-1-propyloxy]-2-chloro-3-bromo pyridine p-toluenesulfonic acid] | 1.55 | – | * (no effect at 62) | – |
| Cc1cc(OCCC(C)N)cnc1Cl (stereo not drawn) [Example 49, 5-(3-Amino-1-butyloxy)-2-chloro-3-methyl-pyridine p-toluenesulfonic acid] | – | – | – | 25 |
| 5-[(S)-2-methylamino-3-phenyl-1-propyloxy]-2-chloro-3-(4-vinylpyridinyl) pyridine di-p-toluenesulfonic acid [Example 25] | 2.61 | – | – | – |
| CCCN[C@H](C)COc1ccc(Cl)nc1 [Example 42, 5-[(R)-2-(1-propyl)amino-1-propyloxy]-2-chloro pyridine p-toluenesulfonic acid] | 7530 | – | – | – |
| CC[C@@H](COc1ccc(F)nc1)NC [Example 17, 5-[(S)-2-methylamino-1-butyloxy]-2-fluoro pyridine p-toluenesulfonic acid] | 225 | – | – | – |
| CC(CCOc1ccc(Cl)nc1)N(C)C (stereo not drawn) [Example 45, 5-(3-Dimethylamino-1-butyloxy]-2-chloro pyridine p-toluenesulfonic acid] | – | – | – | 18 |
| CC(CCOc1cnc(Cl)c(Br)c1)N(C)C (stereo not drawn) [Example 46, 5-(3-Dimethylamino-1-butyloxy)-2-chloro-3-bromopyridine p-toluenesulfonic acid] | – | – | – | 3.1 |
| Cc1cc(OCCC(C)N(C)C)cnc1Cl (stereo not drawn) [Example 48, 5-(3-dimethylamino-1-butyloxy]-2-chloro-methylpyridine p-toluenesulfonic acid] | – | – | – | 1.3 |
| CC(N)CCOc1ccc(Cl)nc1 (stereo not drawn) [Example 44, 5-(3-Amino-1-butyloxy)-2-chloropyridine p-toluenesulfonate] | – | – | – | 20 |
| CC[C@H](N)COc1ccc(F)nc1 [Example 16, 5-[(S)-2-amino-1-butyloxy]-2-fluoro pyridine p-toluenesulfonic acid] | 39.5 | – | – | – |
| N[C@H](COc1cnc(Cl)c(Br)c1)Cc1ccccc1 [Example 21, 5-[(S)-2-amino-3-phenyl-1-propyloxy]-2-chloro-3-bromo pyridine p-toluenesulfonic acid] | 102 | – | – | – |
| CN(C)[C@H](COc1cnc(Cl)c(Br)c1)Cc1ccccc1 [Example 22, 5-[(S)-2-dimethylamino-3-phenyl-1-propyloxy]-2-chloro-3-bromo pyridine p-toluenesulfonic acid] | 319 | – | – | – |
| CC(N)CCOc1ccc(F)nc1 (stereo not drawn) [Example 43, 5-(3-Amino-1-butyloxy)-2-fluoro pyridine p-toluenesulfonic acid] | – | – | – | 122 |
| 5-[(R)-2-methylamino-1-propyloxy]-2-chloro-3-(4-vinylpyridinyl) pyridine p-toluenesulfonic acid [Example 40] | 0.0757 | – | – | – |
